Experimental data as given in ChEMBL document CHEMBL3137440, “DNDi T. cruzi fenarimol series dataset from which preclinical candidate EPL-BS0967 was identified (see also related datasets: CHEMBL3137386 and CHEMBL2448688)”.
In brackets after ≈: the same amount, converted by molar mass.

Experiments:
[1] = test system: Trypanosoma cruzi; assay: (§1) DNDI: Chagas in Vitro; format: functional, Tulahuen C4 (LacZ)
[2] = DNDI: Cytotoxicity against L-6 rat myoblasts from skeletal musclE; settings: L6 rat skeletal muscle myoblasts, IC50
[3] = DNDI: Lipophilicity (gLogD) at pH 3; settings: buffer
[4] = test system: Trypanosoma cruzi; assay: as §1; format: functional, organism-based, Tulahuen C4 (LacZ)
[5] = DNDI: Solubility in phosphate buffer at pH 6.5 determined by nephelometry
[6] = in vitro; settings: human, microsomes
[7] = DNDI: Solubility in 0.01M HCl at pH 2 determined by nephelometry
[8] = in vitro; settings: human, microsomes; remark: listed apart in the source
[9] = DNDI: Lipophilicity (gLogD) at pH 7.4; settings: buffer
[10] = in vitro; settings: human, microsomes; remark: listed apart in the source
[11] = biological target: Cytochrome P450 3A4 (Homo sapiens, UniProt P08684)
Chain of Cytochrome P450 3A4 (P08684 whole entry): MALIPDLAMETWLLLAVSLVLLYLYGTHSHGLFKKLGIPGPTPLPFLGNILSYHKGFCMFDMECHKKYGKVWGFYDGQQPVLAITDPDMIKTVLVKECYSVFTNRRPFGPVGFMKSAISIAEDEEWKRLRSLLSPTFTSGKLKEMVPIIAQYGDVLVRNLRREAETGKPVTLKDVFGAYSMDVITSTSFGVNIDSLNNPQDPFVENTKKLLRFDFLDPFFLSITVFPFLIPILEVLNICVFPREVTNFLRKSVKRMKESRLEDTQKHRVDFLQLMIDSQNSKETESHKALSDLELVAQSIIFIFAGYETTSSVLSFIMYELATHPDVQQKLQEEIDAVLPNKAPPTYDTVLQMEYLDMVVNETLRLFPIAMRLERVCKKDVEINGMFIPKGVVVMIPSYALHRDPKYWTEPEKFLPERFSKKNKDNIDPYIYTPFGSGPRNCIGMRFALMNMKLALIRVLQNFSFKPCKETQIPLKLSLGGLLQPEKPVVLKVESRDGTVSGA

[12] = Trypanosoma cruzi, Tulahuen C4 (LacZ)

| Structure (SMILES) | IC90 [1, 12] [nM] | IC50 [2] [nM] | IC50 [4, 12] [nM] | solubility kinetic [5] [µg/mL] | solubility kinetic [7] [µg/mL] | other results |
| --- | --- | --- | --- | --- | --- | --- |
| FC(F)(F)c1ccc(N(c2cccnc2)C2CCN(c3ccc(Cl)cc3)CC2)cc1 | 27 | > 100000 | 15 | < 1.6 | > 100 | IC90 [1]: 25 nM; chromatographic logD ([3]; pH 3): > 5.3; IC50 [4]: 22 nM; half-life [6]: 51 min; microsomal CLint [8]: 34 µL/min/mg; chromatographic logD ([9]; pH 7.4): > 5.3 |
| FC(F)(F)c1ccc(N(c2cccnc2)C2CCN(c3ccc(C(F)(F)F)nc3)CC2)cc1 | 32 | – | – | – | – | – |
| FC(F)(F)c1ccc(N(c2cccnc2)C2CCN(c3ccccn3)CC2)cc1 | 51 | – | 24 | – | – | – |
| FC(F)(F)c1ccc(N(c2cccnc2)C2CCN(c3ccc(Cl)cn3)CC2)cc1 | 83 | – | 39 | – | – | – |
| CS(=O)(=O)c1ccc(N2CCC(N(c3ccc(Cl)cc3)c3cccnc3)CC2)cc1 | 5.7 | – | 2.18 | < 1.6 | > 100 | hepatic extraction ratio [10]: 0.88; chromatographic logD ([3]; pH 3): 2.3; IC50 [11]: 2000 nM; half-life [6]: 13.1 min; microsomal CLint [8]: 132 µL/min/mg; chromatographic logD ([9]; pH 7.4): 3.9 |
| CS(=O)(=O)c1ccc(N2CCC(N(c3ccc(C#N)cc3)c3cccnc3)CC2)cc1 | 6.6 | > 100000 | 2.35 | 1.6 (≈ 3.7 µM) | – | hepatic extraction ratio [10]: 0.47; chromatographic logD ([3]; pH 3): 2.7; half-life [6]: 111 min; microsomal CLint [8]: 15.6 µL/min/mg; chromatographic logD ([9]; pH 7.4): 3 |
| CC(C)(C)N1CCC(N(c2ccc(C(F)(F)F)cc2)c2cccnc2)CC1 | 1070 | – | 603 | – | – | – |
| O=C(c1ccccc1)N1CCC(N(c2ccc(C(F)(F)F)cc2)c2cccnc2)CC1 | 16.6 | – | 7.46 | – | – | – |
| FC(F)(F)c1ccc(N(c2cccnc2)C2CCN(Cc3ccccc3C(F)(F)F)CC2)cc1 | 36 | – | 9 | 1.6 (≈ 3.34 µM) | > 100 | chromatographic logD ([3]; pH 3, logD): 2.7; half-life ([6]; t (1 / 2)): 18.7 min; microsomal CLint ([8]; CLint): 92.8 µL/min/mg; chromatographic logD ([9]; pH 7.4, logD): > 5.3 |
| Fc1ccccc1CN1CCC(N(c2ccc(C(F)(F)F)cc2)c2cccnc2)CC1 | 40 | – | 21 | – | – | – |
| Cc1ccccc1CN1CCC(N(c2ccc(C(F)(F)F)cc2)c2cccnc2)CC1 | 19 | – | 7 | – | > 100 | chromatographic logD ([3]; pH 3, logD): 2; half-life ([6]; t (1 / 2)): 14.1 min; microsomal CLint ([8]; CLint): 123 µL/min/mg; chromatographic logD ([9]; pH 7.4, logD): > 5.3 |
| FC(F)(F)c1ccc(N(c2cccnc2)C2CCN(c3ccccc3C(F)(F)F)CC2)cc1 | 36 | – | 15 | – | – | – |
| O=C(c1c(F)cccc1F)N1CCC(N(c2ccc(C(F)(F)F)cc2)c2cccnc2)CC1 | 9 | 48900 | 2 | – | – | – |
| FC(F)(F)c1ccc(N(c2cccnc2)C2CCN(c3ccccc3)CC2)cc1 | 30 | 57400 | 14 | < 1.6 | > 100 | chromatographic logD ([3]; pH 3): 4.7; half-life [6]: 29.7 min; microsomal CLint [8]: 58.4 µL/min/mg; chromatographic logD ([9]; pH 7.4): > 5.3 |
| FC(F)(F)c1ccc(N(c2cccnc2)C2CCN(Cc3cccc(C(F)(F)F)c3)CC2)cc1 | 72 | 52100 | 38 | 3.1 (≈ 6.47 µM) | > 100 | chromatographic logD ([3]; pH 3, logD): 2.5; half-life ([6]; t (1 / 2)): 26 min; microsomal CLint ([8]; CLint): 66 µL/min/mg; chromatographic logD ([9]; pH 7.4, logD): > 5.3 |
| Cc1ccc(CN2CCC(N(c3ccc(C(F)(F)F)cc3)c3cccnc3)CC2)cc1 | > 100 | 45600 | 67 | – | – | – |
| FC(F)(F)c1ccc(CN2CCC(N(c3ccc(C(F)(F)F)cc3)c3cccnc3)CC2)cc1 | 80 | – | 33 | – | – | – |
| COc1cccc(CN2CCC(N(c3ccc(C(F)(F)F)cc3)c3cccnc3)CC2)c1 | 90 | 36800 | 56 | – | – | – |

| Structure (SMILES) | IC90 [1, 12] [nM] | IC50 [2] [nM] | IC50 [4, 12] [nM] | solubility kinetic [5] [µg/mL] | solubility kinetic [7] [µg/mL] | other results |
| --- | --- | --- | --- | --- | --- | --- |
| COc1ccc(CN2CCC(N(c3ccc(C(F)(F)F)cc3)c3cccnc3)CC2)cc1 | 92 | 16300 | 57 | 6.3 (≈ 14.3 µM) | > 100 | chromatographic logD ([3]; pH 3, logD): 2; half-life ([6]; t (1 / 2)): 31 min; microsomal CLint ([8]; CLint): 56 µL/min/mg; chromatographic logD ([9]; pH 7.4, logD): 4.9 |
| Cc1cccc(CN2CCC(N(c3ccc(C(F)(F)F)cc3)c3cccnc3)CC2)c1 | 79 | 42900 | 44 | – | – | – |
| FC(F)(F)c1ccc(N(c2cccnc2)C2CCN(c3nccs3)CC2)cc1 | 31 | 41500 | – | 1.6 (≈ 3.96 µM) | > 100 | chromatographic logD ([3]; pH 3): 3.1; half-life [6]: 10.8 min; microsomal CLint [8]: 161 µL/min/mg; chromatographic logD ([9]; pH 7.4): 4.3 |
| FC(F)(F)c1ccc(N(c2cccnc2)C2CCN(c3cccc(C(F)(F)F)c3)CC2)cc1 | 312 | > 100000 | 210 | – | – | – |
| FC(F)(F)c1ccc(N(c2cccnc2)C2CCN(c3ccc(C(F)(F)F)cn3)CC2)cc1 | – | – | – | – | – | IC90 [1]: > 100 nM; IC50 [4]: 19.7 nM |
| Fc1cnc(N2CCC(N(c3ccc(C(F)(F)F)cc3)c3cccnc3)CC2)nc1 | 28 | 53100 | 22 | < 1.6 | > 100 | chromatographic logD ([3]; pH 3): 4.2; half-life [6]: 49 min; microsomal CLint [8]: 36 µL/min/mg; chromatographic logD ([9]; pH 7.4): 4.9 |
| FC(F)(F)c1ccc(N(c2cccnc2)C2CCN(c3ncccn3)CC2)cc1 | 23 | 53900 | 17 | 1.6 (≈ 4.01 µM) | > 100 | chromatographic logD ([3]; pH 3): 3.5; half-life [6]: 8.8 min; microsomal CLint [8]: 196 µL/min/mg; chromatographic logD ([9]; pH 7.4): 4.4 |
| Cc1ccc(N2CCC(N(c3ccc(C(F)(F)F)cc3)c3cccnc3)CC2)cn1 | 340 | > 100000 | 151 | – | – | – |
| Cc1cncc(N2CCC(N(c3ccc(C(F)(F)F)cc3)c3cccnc3)CC2)c1 | 27 | – | 9 | – | – | – |
| CC(C)(O)CN1CCC(N(c2ccc(C(F)(F)F)cc2)c2cccnc2)CC1 | 30 | – | 11 | – | – | – |
| CN(C)S(=O)(=O)c1ccccc1N1CCC(N(c2ccc(C#N)cc2)c2cccnc2)CC1 | 28 | – | 10 | – | – | – |
| CC(C)(C)OC(=O)N1CCC(N(c2ccc(Cl)cc2)c2cccnc2)CC1 | 3.26 | 52800 | 1.03 | – | – | – |
| CC(C)(C)OC(=O)N1CCC(N(c2ccc(C(F)(F)F)cc2)c2cccnc2)CC1 | 9.9 | 22200 | 5.12 | – | – | – |
| CN(C)S(=O)(=O)c1cc(C(F)(F)F)ccc1N1CCC(N(c2ccc(C#N)cc2)c2cccnc2)CC1 | 11 | > 100000 | 6 | – | – | – |
| CC(C)(O)CN1CCC(N(c2ccc(C#N)cc2)c2cccnc2)CC1 | 71 | > 100000 | 27 | > 100 | > 100 | chromatographic logD ([3]; pH 3, logD): 0.7; half-life ([6]; t (1 / 2)): 142 min; microsomal CLint ([8]; CLint): 12.2 µL/min/mg; chromatographic logD ([9]; pH 7.4, logD): 2.2 |
| N#Cc1ccc(N(c2cccnc2)C2CCN(c3ccc(C(F)(F)F)cc3C#N)CC2)cc1 | 4 | > 100000 | 2 | – | – | – |
| FC(F)(F)c1ccc(N2CCC(N(c3ccc(C(F)(F)F)cc3)c3cncnc3)CC2)cc1 | 11 | 76500 | 7 | 3.1 (≈ 6.65 µM) | < 1.6 | chromatographic logD ([3]; pH 3): > 5.3; half-life [6]: 25.7 min; microsomal CLint [8]: 67.5 µL/min/mg; chromatographic logD ([9]; pH 7.4): 5.2 |
